Values quoted from earlier work in patent publication US20200078478A1, “Structural molecule of peptide derivative for PSMA-targeting radiotherapy diagnosis and treatment” (priority 2018, published 2020).

Conditions: Lu-177 labeled, clinical treatment

- half-life: 10.8 h
Structure (SMILES): O=C(O)CC[C@H](NC(=O)N[C@@H](CCCCNC(=O)[C@H](Cc1ccc2ccccc2c1)NC(=O)[C@H]1CC[C@H](CNC(=O)CN2CCN(CC(=O)O)CCN(CC(=O)O)CCN(CC(=O)O)CC2)CC1)C(=O)O)C(=O)O [PSMA-617]
